In patent US6448405B1, “Steroid receptor modulator compounds and methods” (Ligand Pharmaceuticals Incorporated, priority 1994, dated 2002):
Read-outs that look alike come from different tables or passages of the source.

Assays:
human PR-B = target: T1, human PR-B (Homo sapiens, UniProt P06401); test: Co-transfection assay, PR agonist and antagonist activity, CV-1 cells; type: cell-based; conditions: for EC50: read-out: PR Agonist CV-1 Cells Potency;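 as to all read-outs here: luciferase reporter driven by a hormone response element, co-transfected with human PR-B into CV-1 monkey kidney cells, agonists raise and antagonists lower the reporter signal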
T1 construct: expressed in transfected cells; host or cells: CV-1 cells (African green monkey kidney fibroblasts), transient transfection
T1 sequence (P06401 1-933): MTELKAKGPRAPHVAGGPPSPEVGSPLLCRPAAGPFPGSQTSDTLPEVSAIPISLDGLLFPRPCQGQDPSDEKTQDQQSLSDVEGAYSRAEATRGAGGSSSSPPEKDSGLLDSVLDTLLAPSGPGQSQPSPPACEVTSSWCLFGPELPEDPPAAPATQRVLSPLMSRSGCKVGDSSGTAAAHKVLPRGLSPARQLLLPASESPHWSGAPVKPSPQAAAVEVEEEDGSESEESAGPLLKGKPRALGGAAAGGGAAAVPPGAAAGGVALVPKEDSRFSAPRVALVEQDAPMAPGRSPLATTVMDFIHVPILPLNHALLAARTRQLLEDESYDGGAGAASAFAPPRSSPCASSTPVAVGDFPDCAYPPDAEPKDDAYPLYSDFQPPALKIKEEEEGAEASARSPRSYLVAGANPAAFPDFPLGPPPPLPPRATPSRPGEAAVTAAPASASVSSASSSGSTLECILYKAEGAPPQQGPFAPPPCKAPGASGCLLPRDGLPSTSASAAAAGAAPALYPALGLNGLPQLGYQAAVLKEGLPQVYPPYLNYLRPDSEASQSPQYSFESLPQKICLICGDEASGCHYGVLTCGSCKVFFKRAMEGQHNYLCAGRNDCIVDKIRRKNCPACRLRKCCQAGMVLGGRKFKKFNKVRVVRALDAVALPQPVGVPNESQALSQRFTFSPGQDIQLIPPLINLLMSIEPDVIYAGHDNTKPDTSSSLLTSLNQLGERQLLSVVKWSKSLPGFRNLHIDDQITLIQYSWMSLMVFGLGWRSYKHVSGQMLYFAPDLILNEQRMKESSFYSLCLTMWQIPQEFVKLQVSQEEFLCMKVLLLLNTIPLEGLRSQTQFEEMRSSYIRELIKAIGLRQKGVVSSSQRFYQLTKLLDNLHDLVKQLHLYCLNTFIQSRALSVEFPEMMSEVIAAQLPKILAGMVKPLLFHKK

[1] = target: T2, human progesterone receptor A form (PR-A) (Homo sapiens, UniProt P06401); test: PR binding assay, baculovirus extract, [3H] progesterone
T2 sequence (P06401 1-769 isoform P06401-2): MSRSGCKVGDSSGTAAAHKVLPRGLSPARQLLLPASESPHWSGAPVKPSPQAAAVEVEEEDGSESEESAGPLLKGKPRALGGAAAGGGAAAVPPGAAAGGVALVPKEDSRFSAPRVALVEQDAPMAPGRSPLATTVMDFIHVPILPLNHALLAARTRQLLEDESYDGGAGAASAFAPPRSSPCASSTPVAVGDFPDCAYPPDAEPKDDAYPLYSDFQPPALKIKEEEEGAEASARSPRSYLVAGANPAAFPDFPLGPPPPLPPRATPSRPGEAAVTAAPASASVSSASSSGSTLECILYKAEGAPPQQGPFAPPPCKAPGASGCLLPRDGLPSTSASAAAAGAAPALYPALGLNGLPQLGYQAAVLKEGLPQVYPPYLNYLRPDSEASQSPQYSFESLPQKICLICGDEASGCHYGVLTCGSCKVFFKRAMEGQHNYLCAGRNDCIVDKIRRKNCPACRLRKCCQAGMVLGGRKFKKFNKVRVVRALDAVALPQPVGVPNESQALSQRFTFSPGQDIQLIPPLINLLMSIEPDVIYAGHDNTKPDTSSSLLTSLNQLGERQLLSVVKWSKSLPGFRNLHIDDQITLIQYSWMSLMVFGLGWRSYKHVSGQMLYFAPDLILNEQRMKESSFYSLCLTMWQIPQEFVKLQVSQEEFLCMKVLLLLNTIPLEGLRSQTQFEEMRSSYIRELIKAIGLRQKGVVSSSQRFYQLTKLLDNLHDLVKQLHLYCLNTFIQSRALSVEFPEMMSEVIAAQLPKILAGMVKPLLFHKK

[2] = target: T3, human androgen receptor (AR) (Homo sapiens, UniProt P10275); test: Co-transfection assay, AR agonist and antagonist activity, CV-1 cells (pRShAR); type: cell-based; conditions: for AR Agonist CV-1 Cells Efficacy (%): agonist mode, relative to DHT; for AR Antagonist CV-1 Cells Efficacy (%): % maximal inhibition
T3 construct: expressed in transfected cells; host or cells: CV-1 cells, transient transfection
T3 sequence (P10275 1-920): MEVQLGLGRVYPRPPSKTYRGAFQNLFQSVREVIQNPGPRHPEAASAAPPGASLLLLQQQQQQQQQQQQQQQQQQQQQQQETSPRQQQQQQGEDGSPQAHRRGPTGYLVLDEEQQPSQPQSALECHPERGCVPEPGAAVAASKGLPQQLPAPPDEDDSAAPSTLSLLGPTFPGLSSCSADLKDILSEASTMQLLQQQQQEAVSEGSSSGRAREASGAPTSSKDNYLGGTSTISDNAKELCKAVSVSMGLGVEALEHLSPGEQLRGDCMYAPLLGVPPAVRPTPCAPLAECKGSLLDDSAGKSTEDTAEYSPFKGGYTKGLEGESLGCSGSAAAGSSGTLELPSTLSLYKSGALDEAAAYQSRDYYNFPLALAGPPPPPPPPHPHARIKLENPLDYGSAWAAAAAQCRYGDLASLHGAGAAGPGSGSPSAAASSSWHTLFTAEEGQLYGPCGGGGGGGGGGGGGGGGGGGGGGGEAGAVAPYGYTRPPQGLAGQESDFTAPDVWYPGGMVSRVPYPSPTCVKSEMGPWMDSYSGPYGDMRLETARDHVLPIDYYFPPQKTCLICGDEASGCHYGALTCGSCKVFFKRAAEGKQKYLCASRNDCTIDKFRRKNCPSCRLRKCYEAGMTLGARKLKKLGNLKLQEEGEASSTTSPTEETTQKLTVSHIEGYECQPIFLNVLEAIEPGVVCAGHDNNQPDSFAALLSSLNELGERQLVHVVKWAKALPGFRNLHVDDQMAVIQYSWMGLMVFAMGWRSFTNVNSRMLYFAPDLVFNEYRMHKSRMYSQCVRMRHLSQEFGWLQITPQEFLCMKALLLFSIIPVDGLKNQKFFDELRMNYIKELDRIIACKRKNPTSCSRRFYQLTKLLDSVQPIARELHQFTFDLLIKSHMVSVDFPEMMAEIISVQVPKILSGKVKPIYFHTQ

[3] = read-out: PR Antagonist CV-1 Cells Potency
[4] = agonist mode, percent maximal response relative to reference agonist progesterone
[5] = antagonist mode, progesterone at its EC50, % maximal inhibition

Molecule	PR Agonist CV-1 Cells Efficacy (%) (human PR-B)	PR Antagonist CV-1 Cells Efficacy (%) (human PR-B)	EC50 (human PR-B; agonist mode) [µM]	IC50 (human PR-B; [3]) [µM]	AR Agonist CV-1 Cells Efficacy (%) ([2]; Table 2)	AR Antagonist CV-1 Cells Efficacy (%) ([2]; Table 2, antagonist mode)	other results
CC1C(=O)C(C)(C)Nc2ccc3c(c21)/C(=C/c1cccc(F)c1)Oc1ccccc1-3 (racemic) [Compound 389, (Z)-(R/S)-5-(3-Fluorobenzylidene)-1,2,3,4-tetrahydro-2,2,4-trimethyl-5H-chromeno[3,4-f]-3-quinolinone]	133%	na (na = not active (i.e. efficacy or <20 and potency of >10,000))	0.017	> 10	–	–	Ki ([1]; read-out: PR Binding Ki): 0.004 µM
(R/S)-4-Ethyl-1,2,3,4-tetrahydro-1-methyl-8-pyranono[5,6-g]quinoline [Compound 416]	–	–	–	–	88%	24	AR Agonist CV-1 Cells Efficacy (%) [2]: 88%; AR Antagonist CV-1 Cells Efficacy (%) ([2]; antagonist mode, DHT at its EC50): 24%
CC1=CC(C)(C)Nc2ccc(-n3cnc(Cl)c3Cl)cc21 [Compound 103, 6-(4,5-Dichloroimidazol-1-yl)-1,2-dihydro-2,2,4-trimethylquinoline]	na (na = not active (i.e. efficacy or <20 and potency of >10,000))	91%	> 10	0.78	–	–	Ki ([1]; read-out: PR Binding Ki): 0.372 µM
8-Bromo-12-dihydro-2,2,4-trimethylindeno[1,2-]quinoline [Compound 117]	–	–	–	–	–	–	PR Agonist CV-1 Cells Efficacy (%) (human PR-B; [4]): na (na = not active (i.e. efficacy or <20 and potency of >10,000)); PR Antagonist CV-1 Cells Efficacy (%) (human PR-B; [5]): 68%
CC1=CC(C)(C)Nc2ccc(-c3cc(F)cc(C#N)c3)cc21 [Compound 271, 6-(3-Cyano-5-fluorophenyl)-1,2-dihydro-2,2,4-trimethylquinoline]	na (na = not active (i.e. efficacy or <20 and potency of >10,000))	78%	–	–	–	–	–
CC1=CC(C)(C)Nc2c(F)cc(-c3cccc([N+](=O)[O-])c3)cc21 [Compound 291, 8-Fluoro-1,2-dihydro-2,2,4-trimethyl-6-(3-nitrophenyl)quinoline]	na (na = not active (i.e. efficacy or <20 and potency of >10,000))	79%	> 10	0.046	–	–	Ki ([1]; read-out: PR Binding Ki): 0.004 µM
C[C@H]1C(=O)C(C)(C)Nc2ccc3c(c21)O[C@H](c1ccccc1)c1ccccc1-3 (relative stereo) [Compound 391, (R/S-4l,6l)-1,2,3,4-Tetrahydro-2,2,4-trimethyl-6-phenyl-5H-isochromeno[3,4-f]-3-quinolinone]	–	–	–	–	–	–	PR Agonist CV-1 Cells Efficacy (%) (human PR-B; [4]): na (na = not active (i.e. efficacy or <20 and potency of >10,000)); PR Antagonist CV-1 Cells Efficacy (%) (human PR-B; [5]): 65%
CC1=CC(C)(C)Nc2ccc3c(c21)/C(=C/c1ccccc1)Oc1ccccc1-3 [Compound 220, (Z)-5-Benzylidene-1,2-dihydro-2,2,4-trimethyl-5H-chromeno[3,4-f]quinoline]	–	na (key: na = not active (i.e. efficacy or <20 and potency of >10,000))	0.033	–	–	–	IC50 (human PR-B): > 10 µM; Ki [1]: 0.001 µM
CC1=CC(C)(C)Nc2ccc3c(c21)COc1c(Cl)cccc1-3 [Compound 331, (R/S)-7-Chloro-1,2-dihydro-2,2,4-trimethyl-5H-chromeno[3,4-f]quinoline]	na (na = not active (i.e. efficacy or <20 and potency of >10,000))	88%	> 10	0.21	–	–	Ki ([1]; competition with [3H] progesterone, 4° C., 16 hours, read-out: PR Binding Ki): 0.273 µM
CC1=CC(C)(C)Nc2ccc(-c3cccc([N+](=O)[O-])c3)c(Cl)c21 [Compound 310, 5-Chloro-1,2-dihydro-2,2,4-trimethyl-6-(3-nitrophenyl)quinoline]	na (na = not active (i.e. efficacy or <20 and potency of >10,000))	70%	> 10	0.26	–	–	Ki ([1]; read-out: PR Binding Ki): 0.007 µM
CC1=CC(C)(C)Nc2cc3[nH]c(=O)cc(C(F)(F)F)c3cc21 [Compound 247, 1,2-Dihydro-2,2,4-trimethyl-6-trifluoromethyl-8-pyridono[5,6-g]quinoline]	–	–	–	–	23%	69	–
CC1=CC(C)(C)Nc2ccc3c(c21)C(C)Oc1ccc(Cl)cc1-3 (racemic) [Compound 332, (R/S)-9-Chloro-1,2-dihydro-2,2,4,5-tetramethyl-5H-chromeno[3,4-f]quinoline]	138%	na (na = not active (i.e. efficacy or <20 and potency of >10,000))	–	–	–	–	–
8-(4-Chlorobenzoyl)-5-trifluoromethyl-7-pyridono[5,6-e]indoline [Compound 420]	–	–	–	–	40%	80	–
O=c1cc(C(F)(F)F)c2cc3c(cc2[nH]1)NCC3 [Compound 419, 5-Trifluoromethyl-7-pyridono[5,6-e]indoline]	–	–	–	–	29%	74	–
CC1C(=O)C(C)(C)Nc2ccc3c(c21)C(c1ccc(Cl)cc1)Oc1ccccc1-3 (single isomer, unassigned; (+)) [Compound 381, (+)-(R*-4l,5l)-5-(4-Chlorophenyl)-1,2,3,4-tetrahydro-2,2,4-trimethyl-5H-chromeno[3,4-f]-3-quinolinone]	–	na (na = not active (i.e. efficacy or <20 and potency of >10,000))	–	–	–	–	–
CC1(C)CNc2cc3[nH]c(=O)cc(C(F)(F)F)c3cc2C1 [Compound 437, 1,2,3,4-Tetrahydro-3,3-dimethyl-6-trifluoromethyl-8-pyridono[5,6-g]quinoline]	–	–	–	–	na (na = not active (i.e. efficacy of <20 and potency of >10,000))	72	AR Agonist CV-1 Cells Efficacy (%) [2]: na (na = not active (i.e. efficacy of <20 and potency of >10,000)); activity as AR antagonists compared with 2-OH-flutamide ([2]; antagonist mode): equivual or better activity
